Results taken from patent US8088941B2, “Glycogen synthase kinase-3 inhibitors” (Tel Aviv University Future Technology Development L.P., priority 2001, dated 2012).
pIC50: −log10 of the molar value. Counter-ions that a name gives are not always drawn. Like-named read-outs stand apart in the source and are kept apart here. Each block holds one compound with its values, some of them ahead of it.

Legend:
[1] = biological target: GSK-3 (Oryctolagus cuniculus, UniProt A0A5F9DUX8); assay: Time course analyses of peptide phosphorylation by GSK-3; assay type: biochemical
[2] = biological target: T1, recombinant rabbit GSK-3β (Oryctolagus cuniculus, UniProt G1T8E2); assay: In vitro GSK-3 inhibition assay with PGS-1 peptide substrate; assay type: biochemical; conditions: for GSK-3 inhibition activity: preliminary inhibition assay, FIG. 5
Experimental: (§1) In vitro inhibition assays: Purified recombinant rabbit GSK-3β (Eldar-Finkelman et al., 1996) was incubated with peptide substrate PGS-1 ([…](p)EDEEE) (SEQ ID NO:1) or peptide substrate p9CREB (SEQ ID NO:2) and with phenyl phosphate, pyridoxal phosphate (P-5-P), GSC-1, GSC-2, GSC-3, GSC-4, GSC-5, GSC-6, GSC-7 or GSC-21 (structural formulas are depicted in FIG. 3), at indicated concentrations. The reaction mixture included Tris 50 mM (pH=7.3), 10 mM MgAc, ^32P[γ-ATP] (100 μM), 0.01% β-mercaptoethanol, and was incubated for 10 minutes at 30° C. Reactions were spotted on phosphocellulose paper (p81), washed with 100 mM phosphoric acid, and counted for radioactivity (as described in Eldar-Finkelman et al., 1996).
In vitro inhibition assays: In a preliminary inhibition assay, the GSK-3 inhibition activity of the known compounds phenyl phosphate, pyridoxal phosphate, GSC-1, GSC-2 and GSC-3 was tested as described hereinabove.
(§2) In an additional inhibition assay, the GSK-3 inhibition activity of GSC-1, GSC-2, GSC-3, GSC-4, and GSC-21 was tested. The ability of GSK-3 to phosphorylate PGS-1 peptide substrate was measured in the presence of indicated concentrations of these compounds. The results, presented in FIG. 6, represent the percentage of GSK-3 activity as compared with a control incubation without inhibitors and are mean of 2 independent experiments±SEM, where each point was assayed in triplicate.

[3] = biological target: CDK-2 (Homo sapiens, UniProt P24941); assay: CDK-2 kinase activity with histone H1 substrate (selectivity); assay type: biochemical; conditions: final concentration of 2 mM, FIG. 9
Experimental: The effect of GSC-4, GSC-5 and GSC-7 (100 and 200 μM) on other protein kinases was tested by incubating CDK-2 (1 unit) with a reaction mixture similar to that described hereinabove and containing histone H1 substrate (5 μg). The reactions were boiled with SDS sample buffer, separated on gel electrophoresis and autoradiographed.
The selectivity of the novel compounds towards GSK-3 was measured by evaluating the inhibition of CDK-2, a kinase closely related to GSK-3. Thus, CDK-2 activity was assayed in the presence of ^32P[γ-ATP] and histone H1 as a substrate. GSC-4, GSC-5 and GSC-7 were added at a final concentration of 2 mM.

[4] = test system: Mice adipocytes; assay: Glucose uptake in isolated adipocytes; assay type: cell-based; conditions: mouse primary adipocytes, 2.5 hours
Experimental: Glucose uptake in isolated adipocytes: Mice adipocytes were isolated from epididymal fat pad by digestion with 0.8 mg/ml collagenase (Worthington Biochemical) as described previously (Lawrence et al., 1977). Digested fat pads were passed through nylon mesh and cells were washed 3 times with Krebs-bicarbonate buffer (pH=7.4) containing 1% bovine serum albumin (Fraction V, Boehringer Mannheim, Germany), 10 mM HEPES (pH=7.3), 5 mM glucose and 200 nM adenosine. Cells were incubated with GSC-4 and GSC-21 at indicated concentrations for 2.5 hours, followed by addition of 2-deoxy [^3H] glucose (0.5 μci/vial) for 10 minutes. The assay was terminated by centrifugation of cells through dinonylphthalate (ICN, USA). ^3H was thereafter quantitated by liquid scintillation analyzer (Packard). Nonspecific uptake of 2-deoxy-[^3H] glucose was determined by the addition of cytochalasin B (50 μM) 30 minutes prior to the addition of radioactive material.
Glucose Uptake: The ability of the newly designed compounds GSC-4 and GSC-21 to promote glucose uptake was tested in mouse primary adipocytes as described hereinabove. The relative [^3H] 2-deoxy glucose incorporation observed in non-treated adipocytes was normalized to 1 unit and the values obtained for [^3H] 2-deoxy glucose in adipocytes treated with GSC-4 or GSC-21 are presented as fold activation over cells treated with the peptide control, and are the mean of 6 independent experiments±SEM, where each point was assayed in triplicate.

[5] = biological target: T1, recombinant rabbit GSK-3β; assay: In vitro GSK-3 inhibition assay with p9CREB peptide substrate; assay type: biochemical
Experimental: as §1
as §2, with “In still” for “In”, “additional” for “additional inhibition”, “GSC-4, GSC-5, GSC-6,” for “GSC-4,”, “GSC-7” for “GSC-21”, “p9CREB” for “PGS-1”, “FIGS. 7a and 7b,” for “FIG. 6,”
The kinetic nature of the inhibitors was studied by measuring the initial velocity as a function of the substrate concentration at several inhibitor concentrations. Lineweaver-Burk plots of the GSK-3 inhibition by these inhibitors confirmed the assumption that these are substrate-competitive inhibitors (data not shown). FIG. 8 presents the Lineweaver-Burk plot of the GSK-3 inhibition by gsc-7, as an exemplary inhibitor, represented by phosphate incorporation into p9CREB peptide substrate (CPM). […] Each point is a mean of duplicated sample.
The ability of GSK-3 to phosphorylate p9CREB peptide substrate was measured in the presence of indicated concentrations of MP molecules, using the protocol described hereinabove in Example 3. The results, presented in FIG. 19, represent the percentage of GSK-3 activity in control incubation in which inhibitors were omitted. Results are mean of 2 independent experiments±SEM, where each point was assayed in duplicate.

[6] = test system: glycogen synthase; assay: Activation of glycogen synthase in C2C12 cells; assay type: cell-based; conditions: 2.5 hours, FIG. 10
Experimental: Activation of glycogen synthase by GSK-3 inhibitors: Activation of glycogen synthase can serve as a good marker for inhibition of GSK-3. […] Thus, activation of glycogen synthase by GSC-5 and GSC-7 was tested in C2C12 myotubes. C2C12 cells were treated with GSC-5 and GSC-7 for 2.5 hours at indicated concentrations and lysate supernatants were thereafter assayed for glycogen synthase activity. The activity of glycogen synthase in cells treated with vehicle DMSO (0.1% DMSO) was normalized to 1 unit and the values for glycogen synthase activity observed in cells treated with GSK-3 inhibitors are presented as fold stimulation over the cells treated with vehicle […].
Activation of glycogen synthase by GSK-3 inhibitors: Activation of glycogen synthase activity in C2C12 cells treated with GSC-5 and GSC-7 was assayed as described hereinabove. The activity of glycogen synthase in cells treated with vehicle DMSO (0.1% DMSO) was normalized to 1 unit and the values for glycogen synthase activity observed in cells treated with GSK-3 (GS4 (hollow circles) GS6 (filled circles) are presented as fold stimulation over the cells treated with vehicle 0.1% HCL.

[7] = MP molecules, p9CREB peptide substrate, FIG. 19

T1 sequence (G1T8E2 1-432): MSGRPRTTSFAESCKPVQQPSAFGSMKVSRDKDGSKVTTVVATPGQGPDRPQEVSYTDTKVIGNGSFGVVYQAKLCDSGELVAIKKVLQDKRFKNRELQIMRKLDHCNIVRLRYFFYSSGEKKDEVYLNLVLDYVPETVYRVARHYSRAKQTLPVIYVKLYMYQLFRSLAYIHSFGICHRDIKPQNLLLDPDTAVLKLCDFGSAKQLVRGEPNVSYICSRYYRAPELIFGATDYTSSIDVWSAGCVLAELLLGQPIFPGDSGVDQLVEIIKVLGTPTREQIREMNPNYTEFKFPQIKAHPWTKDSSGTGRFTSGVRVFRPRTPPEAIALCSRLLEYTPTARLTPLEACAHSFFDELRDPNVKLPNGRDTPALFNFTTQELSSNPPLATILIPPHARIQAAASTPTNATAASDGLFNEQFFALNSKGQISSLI
GSK-3, sequence (A0A5F9DUX8 entry or part of it): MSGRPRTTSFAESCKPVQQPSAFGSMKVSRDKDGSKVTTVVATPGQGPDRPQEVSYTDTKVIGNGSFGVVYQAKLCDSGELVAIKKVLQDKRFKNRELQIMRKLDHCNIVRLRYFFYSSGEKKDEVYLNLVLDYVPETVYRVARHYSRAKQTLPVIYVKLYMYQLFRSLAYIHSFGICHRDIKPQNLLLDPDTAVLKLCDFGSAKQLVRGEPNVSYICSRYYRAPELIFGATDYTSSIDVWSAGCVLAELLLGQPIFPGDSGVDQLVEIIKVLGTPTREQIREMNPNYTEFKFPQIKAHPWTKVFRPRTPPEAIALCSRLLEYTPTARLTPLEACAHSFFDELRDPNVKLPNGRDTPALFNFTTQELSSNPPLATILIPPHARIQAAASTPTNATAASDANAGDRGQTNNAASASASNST

Compound: ILSRRPSYR [9CREB]
Phosphorylation of peptide by GSK-3 (substrate) [1]: completely failed to be phosphorylated

Compound: N=C(N)Nc1cccc(COP(=O)(O)O)c1 [GSC-4, 3-guanidinobenzyl phosphate]
GSK-3 inhibition activity (ranking) ([2]; PGS-1 peptide substrate, FIG. 6): most active compounds
Inhibition of histone H1 phosphorylation by CDK-2 [3]: no inhibition of histone H1 phosphorylation was observed
Glucose uptake ([3H] 2-deoxy glucose incorporation), fold activation ([4]; 10 μM): ~2 fold
pIC50 ([5]; p9CREB peptide substrate, FIGS. 7a-b, most active compounds): 3.30

Compound: Cc1ncc(COP(=O)(O)O)c(C=O)c1O [pyridoxal phosphate, reference compound]
GSK-3 inhibition activity [2]: exerted an inhibition activity

Compound: O=P(O)(O)Oc1ccccc1 [phenyl phosphate, reference compound]
GSK-3 inhibition activity [2]: exerted an inhibition activity

Compound: N=C(N)NCc1cccc(COP(=O)(O)O)c1 [GSC-5, 3-(guanidinomethy)benzyl phosphate]
Inhibition of histone H1 phosphorylation by CDK-2 [3]: no inhibition of histone H1 phosphorylation was observed
Glycogen synthase activity, fold stimulation over vehicle [6]: 1.5 fold

Compound: NCCc1cc(CCN)cc(COP(=O)(O)O)c1 [GSC-21, 3,5-bis(2-aminoethyl)benzyl phosphate]
Glucose uptake ([3H] 2-deoxy glucose incorporation), fold activation ([4]; 0.5 μM): 1.7 fold
Glucose uptake ([3H] 2-deoxy glucose incorporation), fold activation ([4]; 5 μM): 2.5 fold

Compound: ILSRRPEYR [9ECREB]
Phosphorylation of peptide by GSK-3 (substrate) [1]: completely failed to be phosphorylated

Further lines, with some results ahead:

GSK-3 inhibition activity [2]: exerted an inhibition activity
Compound: Cc1ccc(COP(=O)(O)O)cc1 [GSC-2, p-methyl benzyl phosphate]

pIC50 [5]: 3.30
Kinetic nature of inhibition (Lineweaver-Burk plot) ([5]; phosphate incorporation into p9CREB, FIG. 8): competitive specific inhibitor
Compound: N=C(N)Nc1cc(COP(=O)(O)O)cc(NC(=N)N)c1 [GSC-7, 3,5-bisguanidino benzyl phosphate]
Inhibition of histone H1 phosphorylation by CDK-2 [3]: no inhibition of histone H1 phosphorylation was observed
Glycogen synthase activity, fold stimulation over vehicle [6]: 1.8 fold

pIC50 [5, 7]: ~3.00
Compound: N=C(N)Nc1cccc(-c2cn(-c3cccc(COP(=O)(O)O)c3)nn2)c1 [MP-1, 3-(4-(3-guanidinophenyl)-1,2,3-triazol-1-yl)benzyl phosphoric acid hydrochloride]

pIC50 [5, 7]: ~3.00
Compound: N=C(N)Nc1ccc(-c2cn(-c3cccc(COP(=O)(O)O)c3)nn2)cc1 [MP-4, 3-(4-(4-guanidinophenyl)-1,2,3-triazol-1-yl)benzyl phosphoric acid hydrochloride]
